According to ChEMBL document CHEMBL4627408, “Metabolic Activation of Pirfenidone Mediated by Cytochrome P450s and Sulfotransferases” (J Med Chem, 2020):
Values belong to the compound of their own block, whether it stands above or below them.

Columns and labels:
[1] = Retention time in rat liver microsomes treated with 50 uM pirfenidone incubated for 45 mins in presence of NADPH by LC-MS/MS analysis; format: ADME, Microsome; details: 0.75 h
[2] = Retention time in rat liver microsomes treated with 50 uM pirfenidone incubated for 45 mins in presence of NADPH and NAC by LC-MS/MS analysis; format: ADME, Microsome; details: 0.75 h
Cytochrome P450 3A5 [3] = molecular target: T1, Cytochrome P450 3A5 (Homo sapiens, UniProt P20815); experiment: Drug level assessed as human recombinant CYP3A5-mediated compound formation using 50 uM pirfenidone incubated for 45 mins in presence of NADPH and glutathione by LC-MS/MS analysis; format: ADME; details: recombinant enzyme, 0.75 h
Cytochrome P450 3A4 [4] = molecular target: T2, Cytochrome P450 3A4 (Homo sapiens, UniProt P08684); experiment: Drug level assessed as human recombinant CYP3A4-mediated compound formation using 50 uM pirfenidone incubated for 45 mins in presence of NADPH and glutathione by LC-MS/MS analysis; format: ADME; details: recombinant enzyme, 0.75 h
[5] = Toxicity in rat assessed as induction of liver injury at 150 to 200 mg/kg, ip; format: organism-based; details: in vivo
Cytochrome P450 3A5 [6] = molecular target: T1, Cytochrome P450 3A5; experiment: Drug metabolism assessed as human recombinant CYP3A5-mediated 5-methylene-1-phenyl-pyridin-1-ium-2-one formation at 50 uM incubated for 45 mins in presence of NADPH and glutathione by LC-MS/MS analysis; format: ADME; details: recombinant enzyme, 0.75 h
[7] = Drug metabolism in rat liver assessed as formation of GSH-conjugate by measuring hepatic protein adduction formation at 50 to 200 mg/kg, ip measured after 1 hr by LC-MS/MS analysis; format: ADME, organism-based; details: in vivo
[8] = Drug metabolism in rat bile assessed as formation of (2R)-2-acetamido-3-[(6-oxo-1-phenyl-3-pyridyl)methylsulfanyl]propanoic acid at 100 mg/kg, ip measured after 2 hrs by LC-MS/MS analysis; format: ADME, organism-based; details: in vivo
[9] = Drug metabolism in rat liver microsomes assessed as 5-Hydroxymethyl-1-phenyl-1H-pyridine-2-one formation at 50 uM incubated for 45 mins in presence of NADPH and glutathione by LC-MS/MS analysis; format: ADME, Microsome; details: 0.75 h
[10] = Drug metabolism in rat liver assessed as formation of GSH-conjugate at 100 mg/kg, ip measured up to 3 hrs by LC-MS/MS analysis; format: ADME, organism-based; details: in vivo
Cytochrome P450 3A4 [11] = molecular target: T2, Cytochrome P450 3A4; experiment: Drug metabolism assessed as human recombinant CYP3A4-mediated 5-methylene-1-phenyl-pyridin-1-ium-2-one formation at 50 uM incubated for 45 mins in presence of NADPH and glutathione by LC-MS/MS analysis; format: ADME; details: recombinant enzyme, 0.75 h
Hepatocyte = experiment: Toxicity in rat primary hepatocytes at 800 uM; format: cell-based
[12] = Drug metabolism in rat liver assessed as formation of GSH-conjugate by measuring retention time of cysteine adduct in proteolytic protein samples at 10 to 400 mg/kg, ip measured up to 3 hrs by LC-MS/MS analysis; format: ADME, organism-based; details: in vivo
Cytochrome P450 2A6 = molecular target: T3, Cytochrome P450 2A6 (Homo sapiens, UniProt P11509); experiment: Drug metabolism assessed as human recombinant CYP2A6-mediated compound activation using 50 uM pirfenidone incubated for 45 mins in presence of NADPH and glutathione by LC-MS/MS analysis; format: ADME; details: recombinant enzyme, 0.75 h
T3 sequence (P11509 whole entry): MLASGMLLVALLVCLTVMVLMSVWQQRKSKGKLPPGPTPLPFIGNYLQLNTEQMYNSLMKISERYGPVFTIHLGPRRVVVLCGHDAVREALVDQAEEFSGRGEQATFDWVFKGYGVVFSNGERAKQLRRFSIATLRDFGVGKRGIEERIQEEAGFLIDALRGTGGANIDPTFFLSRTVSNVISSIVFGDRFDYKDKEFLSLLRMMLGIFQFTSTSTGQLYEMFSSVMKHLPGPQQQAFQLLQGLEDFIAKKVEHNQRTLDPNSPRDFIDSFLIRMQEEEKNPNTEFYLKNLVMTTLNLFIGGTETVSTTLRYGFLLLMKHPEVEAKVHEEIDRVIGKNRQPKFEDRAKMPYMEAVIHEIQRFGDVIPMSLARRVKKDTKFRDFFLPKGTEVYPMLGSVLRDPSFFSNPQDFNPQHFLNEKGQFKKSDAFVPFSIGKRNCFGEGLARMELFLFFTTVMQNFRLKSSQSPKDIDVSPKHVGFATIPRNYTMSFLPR

[13] = Drug metabolism in rat liver microsomes assessed as Retention time of GSH metabolite at 50 uM incubated for 45 mins in presence of NADPH and glutathione by LC-MS/MS analysis; format: ADME, Microsome; details: 0.75 h

T2 sequence (P08684 whole entry): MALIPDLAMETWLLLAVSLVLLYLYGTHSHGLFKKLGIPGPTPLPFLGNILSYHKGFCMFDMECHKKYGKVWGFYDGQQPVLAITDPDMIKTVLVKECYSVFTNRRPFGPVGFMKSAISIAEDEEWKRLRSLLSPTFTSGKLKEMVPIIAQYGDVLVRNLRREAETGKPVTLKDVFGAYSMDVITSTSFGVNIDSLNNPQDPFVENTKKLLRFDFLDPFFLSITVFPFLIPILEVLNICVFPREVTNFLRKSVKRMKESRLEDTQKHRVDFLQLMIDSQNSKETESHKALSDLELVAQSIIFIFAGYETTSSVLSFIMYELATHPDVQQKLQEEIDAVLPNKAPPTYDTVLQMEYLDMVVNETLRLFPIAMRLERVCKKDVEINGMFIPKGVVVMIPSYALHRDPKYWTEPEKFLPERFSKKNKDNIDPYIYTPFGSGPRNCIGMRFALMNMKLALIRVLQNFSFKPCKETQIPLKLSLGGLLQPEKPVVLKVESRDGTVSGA
T1 sequence (P20815 whole entry): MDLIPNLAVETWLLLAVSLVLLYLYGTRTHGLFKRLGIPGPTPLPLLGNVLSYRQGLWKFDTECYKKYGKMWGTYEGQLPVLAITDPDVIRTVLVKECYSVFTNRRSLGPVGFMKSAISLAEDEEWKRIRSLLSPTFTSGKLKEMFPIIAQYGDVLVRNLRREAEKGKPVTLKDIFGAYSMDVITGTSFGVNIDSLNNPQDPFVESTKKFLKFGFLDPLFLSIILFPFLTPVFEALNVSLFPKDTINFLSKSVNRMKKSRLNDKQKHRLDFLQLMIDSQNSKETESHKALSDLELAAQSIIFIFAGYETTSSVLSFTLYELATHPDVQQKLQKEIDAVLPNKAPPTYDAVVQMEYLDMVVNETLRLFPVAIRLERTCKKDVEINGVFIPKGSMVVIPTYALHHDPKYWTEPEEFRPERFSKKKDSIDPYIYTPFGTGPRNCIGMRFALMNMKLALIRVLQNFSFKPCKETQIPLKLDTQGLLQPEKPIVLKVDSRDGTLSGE

- Retention_time [1]: 7.25 min
SMILES: O=c1ccc(CO)cn1-c1ccccc1

- Retention_time [2]: 7.26 min
SMILES: CC(=O)N[C@@H](CSCc1ccc(=O)n(-c2ccccc2)c1)C(=O)O

- Drug uptake (Cytochrome P450 3A5 [3]): Metabolite_Detected
- Drug uptake (Cytochrome P450 3A4 [4]): Metabolite_Detected
SMILES: C=C1C=CC(=O)[N+](c2ccccc2)=C1

- Drug metabolism (Cytochrome P450 3A5 [6]): Metabolite_Detected
- Drug metabolism [7]: Dose-dependent effect
- Drug metabolism [8]: Metabolite_Detected
- Drug metabolism [9]: Metabolite_Detected
- Drug metabolism [10]: Dose-dependent effect
- Drug metabolism (Cytochrome P450 3A4 [11]): Metabolite_Detected
- Retention_time [12]: 6.24 min
- Drug metabolism (Cytochrome P450 2A6): Metabolite_Detected
- Retention_time [13]: 6.6 min
SMILES: Cc1ccc(=O)n(-c2ccccc2)c1 [PIRFENIDONE]
- Activity [5]: Non-Toxic
- Activity (Hepatocyte): Non-Toxic
